Source: US20050009772A1, “Methods and compositions for the treatment of glaucoma and other retinal diseases” (The Regents of the University of California, priority 2003, published 2005)
“Also recorded” adds a separate entry of the source.

How the values were obtained:
HSP72 = test: Western blot for HSP72 in enriched RGC fraction after systemic administration of GGA (Experiment 1); type: in vivo, rat; settings: GGA 200 mg/kg daily i.p.
HSC70 = test: Quantitative immunohistochemical analysis of HSC70 in the RGCL after 1 week of IOP elevation (Experiment 3); type: in vivo, rat; settings: among all the groups, 1 week after laser
Experimental: TdT-mediated biotin-dUTP nick end labeling (TUNEL) and immunohistochemical analysis for HSP72 and HSC70 were performed.
Animals were deeply anesthetized with intramuscular injections of 0.8 ml/kg of a cocktail of 5 ml ketamine (100 mg/ml), 2.5 ml xylazine (20 mg/ml), 1.0 ml acepromazine (10 mg/ml), and 1.5 ml normal saline. Then they were transcardially perfused with 4% paraformaldehyde in 0.1 M phosphate buffer. The enucleated eyeballs were immersed in fixative for 1 hour, bisected and post-fixed overnight. The eyes were embedded in paraffin and sectioned at a four-μm thickness along the vertical meridian through the optic nerve head. […] Antigen-antibody complexes were detected by an avidin-biotin-peroxidase technique (Vectastain ABC Kit; Vector Laboratories). […]
Immunohistochemical staining was analyzed quantitatively with a computer-assisted image processing unit (Image-Pro Plus software, Media Cybernetics, Silver Spring, Md.) and the “count-measure” function. […] For each digital image, all individual cells in the RGCL were marked by a masked examiner and the optical density of each cell was measured. The relative intensities of cells in the RGCL were measured and averaged (±SEM) to yield a single value representing one retina.

In the case of Geranylgeranylacetone [GGA], the “immunoreactivity of HSP72 in RGCs (immunoblot)” value (“immunoreactivity of HSP72” below) (HSP72; 1 day) was “mild increase in immunoreactivity”, the “immunoreactivity of HSP72” value (HSP72; 3 days) was “increased HSP72 expression; also recorded: strong increase in immunoreactivity” and the “immunoreactivity of HSP72” value (HSP72; 7 days) was “increased HSP72 expression; also recorded: strong increase in immunoreactivity”. The “expression of HSC70 in RGCL (immunoreactive intensity)” value (HSC70) was “no statistically significant difference; also recorded: No change in HSC70 immunoreactivity”.
